Assays:
[1] = target: T1, KRAS G12C 1-169, his-tagged protein, GDP-loaded (Homo sapiens, UniProt P01116, G12C); test: Biochemical assay: covalent binding to KRAS G12C analyzed by mass spectrometry; settings: compounds 247-342, measured at 30 min; listed as 272
T1 construct: KRAS G12C 1-169, his-tagged protein, GDP-loaded

[2] = tested on: mutant cells (H358, Calu-1, MiaPaca2, NCI-H23, SW1463, H1792); test: Western blots / dot blot arrays of signaling pathways maintained or hyper-activated following KRAS G12C inhibition; format: cell-based; settings: 48 hours, versus untreated cell lines
From the text: FIG. 1 provides western blots for identifying synergistic pathways for targeting in combination with KRAS G12C inhibition. Shown are dot blot arrays for detection of phosphorylated receptor tyrosine kinases (p-RTK) and phosphorylated signaling kinases (ie. p-ERK, or p-AKT) for indicated cell lines treated with indicated K-Ras G12C inhibitor. Notable signaling targets and their respective pathways that are induced or maintained following treatment are summarized for various cell lines.
Western blots were used to analyze downstream KRAS signaling nodes (AKT, ERK, S6, EGFR/HER2, SRC, MET) and a transcription factor (STAT3). […] Sustained or induced pathways were assessed by comparing untreated cell lines with those treated by compound I-272.

Calu-1 cells = test: Western blots of KRAS signaling nodes and cleaved PARP in Calu-1 cells; format: cell-based; settings: I-272 30, 100, 300, and 1000 nM, Dasatinib 150 nM
From the text: (§1) Western blots were used to analyze downstream KRAS signaling nodes (AKT, ERK, RSK, S6) and a marker of apoptosis (cleaved PARP).

[3] = tested on: mutant cell lines (H358, NCI-H23, SW1463, H1792, Calu-1, SW1573); test: Western blots, KRAS G12C inhibitor with SRC inhibitors in multiple cell lines; format: cell-based; settings: I-272 1 μM
From the text: as §1
As a control, a non-G12C cell line (A549) was subjected to the same single agent and combination treatments. The KRAS G12C inhibitors show no single agent or additive/synergistic effects in this line.

[4] = tested on: mutant cell lines (H358, H1792, MiaPaca2); test: Western blots, KRAS G12C inhibitor with JAK inhibitor momelotinib in multiple cell lines; format: cell-based
Procedure: Western blots were used to analyze downstream KRAS signaling nodes (AKT, ERK, S6), a transcription factor (STAT3), and a marker of apoptosis (cleaved PARP). Treatment of mutant cell lines (H358, H1792, MiaPaca2) or a control cell line (A549) was tested with an exemplary KRAS G12C inhibitor (compound I-272, 0.3 and 1 μM) alone or in combination with momelotinib (JAK inhibitor, 5 μM). […] Specifically, when compound I-272 is used in combination with momelotinib (JAK inhibitor) PARP is detected in H358, H1792, and MiaPaca2.

[5] = tested on: mutant cell lines (NCI-H23, SW1573); test: Western blots, KRAS G12C inhibitor with ruxolitinib or momelotinib; format: cell-based; settings: I-272 1 μM
Procedure: Western blots were used to analyze downstream KRAS signaling nodes (AKT, ERK, S6), transcription factors (STAT3, IκBα), protein marker (TBK1) and a marker of apoptosis (cleaved PARP). Treatment of mutant cell lines (NCI-H23, SW1573) were tested with an exemplary KRAS G12C inhibitor (compound I-272, 1 μM) alone or in combination with one of ruxolitinib (JAK 1/2 inhibitor, 1 and 5 μM) or momelotinib (JAK1/2, TBK1, IKKe inhibitor, 1 and 5 μM). […] Further, there is synergistic p-S6 inhibition in each of the combinations. Synergistic apoptosis strongly occurred when TBK1 and non-canonical NFκB signaling is inhibited.

SW1573 cells = test: Western blots of KRAS signaling nodes and cleaved PARP in SW1573 cells; format: cell-based
From the text: (§2) Western blots were used to analyze downstream KRAS signaling nodes (AKT, ERK, RSK, S6) and a marker of apoptosis (cleaved PARP). […] Taxol (paclitaxel) was used as a positive control.

H358 cells (KRAS G12C) = test: Western blots of downstream KRAS signaling nodes and apoptosis markers in H358 cells; format: cell-based; settings: for apoptosis based on cleaved PARP levels: H358 cells, erlotinib 5 μM
Procedure: FIG. 2 depicts western blot analysis of downstream targets of K-Ras signaling. […] Paclitaxel was used as a positive control. The western blots were probed with antibodies for p-AKT, p-ERK, total ERK, p-RSK, p-S6 and cleaved PARP. Cleaved PARP is indicative of apoptosis. B) A549 cells that express the G12S isoform of K-Ras were used a control for K-Ras G12C inhibitor specificity. A549 cells were treated as in A).
as §1, §2
Western blots were used to analyze downstream KRAS signaling nodes (AKT, ERK, RSK, S6) and a marker of apoptosis (cleaved PARP). […] Caspase activity was measured using a standard caspase activity luminescence assay (Capase-Glo, Promega).

[6] = tested on: KRAS G12C mutant cells lines (H358, H2122, H2030, H1792, Calu-1, MiaPaca2, and NCI-H23); test: Caspase activity luminescence assay (Capase-Glo) with compound II-64 alone or in combination; format: cell-based; settings: alone
Procedure: Caspase activity was measured using a standard caspase activity luminescence assay (Capase-Glo, Promega). Taxol (paclitaxel) was used as a positive control.

H358 cells = test: Flow cytometry, cell cycle progression and apoptosis (sub-diploid cells); format: cell-based; settings: single agents
Procedure: B) The average apoptosis response of NCI-H358, NCI-H1792, NCI-H2122, and SW1573 cell lines generated by flow cytometry as described in A).
(§3) Apoptosis was measured via flow cytometry. Gated populations=% of subdiploid apoptotic cells.
as §3
FIG. 7 depicts apoptosis in NCI-H358 cells treated with II-64 (10 μM), SN38 (5 nM), or a combination treatment (II-64+SN38). […] Apoptosis was measured via flow cytometry. Gated populations=% of subdiploid apoptotic cells.
Flow cytometry was used to evaluate KRAS G12C inhibitor combination treatments.
Next, flow cytometry was used to evaluate a KRAS G12C inhibitor in combination with the chemotherapeutic agents paclitaxel or docetaxel.

[7] = I-272 0.3 and 1 μM, alone, 24 hours

T1 sequence (P01116 1-169 isoform P01116-2 G12C): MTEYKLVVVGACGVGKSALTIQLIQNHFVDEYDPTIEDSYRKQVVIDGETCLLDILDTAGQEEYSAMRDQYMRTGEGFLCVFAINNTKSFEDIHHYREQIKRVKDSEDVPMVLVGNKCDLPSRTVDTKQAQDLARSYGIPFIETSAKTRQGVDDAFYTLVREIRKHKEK

C=CC(=O)N1CCN(c2ncnc3c(F)c(-c4cc(O)cc5ccccc45)c(Cl)cc23)CC1 [Compound I-272, 1-(4-(6-chloro-8-fluoro-7-(3-hydroxynaphthalen-1-yl)quinazolin-4-yl)piperazin-1-yl)prop-2-en-1-one]
Binding % [1]: ++++ (++++indicates binding activity greater than 75%)
sustained or induced pathways following KRAS G12C inhibition [2]: sustained or induced pathways suggesting targeting with RTK, PI3K, mTOR, SRC, and JAK/STAT inhibitors
inhibition of downstream KRAS signaling nodes (Western blot) (Calu-1 cells; 24 hours): clear and, at higher concentrations, nearly complete inhibition of p-ERK and p-RSK
apoptosis based on cleaved PARP levels (Calu-1 cells): minimal cleaved PARP
inhibition of p-ERK ([3]; alone, 24 hours): clear and, in some cases (H358, SW1463, Calu-1), nearly complete inhibition of p-ERK
inhibition of p-S6 ([3]; dasatinib 100 nM, 24 hours): inhibition of p-S6 in H358, SW1463, H1792, and Calu-1 cell lines
apoptosis based on cleaved PARP levels ([3]; dasatinib 100 nM, Saracatinib 2 μM): minimal cleaved PARP
inhibition of S6 [4, 7]: some to nearly complete inhibition of S6 (in H358)
inhibition of p-ANK [4, 7]: some inhibition of p-ANK (in H358)
inhibition of p-ERK [4, 7]: some and nearly complete inhibition of p-ERK (in H1792 and H358 respectfully)
induction of apoptosis (cleaved PARP) ([4]; I-272 0.3 and 1 μM, momelotinib 5 μM): some induction of apoptosis as observed by the presence of cleaved PARP (in H358 and MiaPaca2)
induction of STAT3 ([4]; I-272 alone, also control cell line A549): induces STAT3 in certain cell lines (slight in H358 and H1792, strong in MiaPaca2 and A549)
inhibition of p-ERK ([5]; alone, 24 hours): clear and nearly complete inhibition of p-ERK
inhibition of p-S6 and p-AKT ([5]; alone, 24 hours): inhibition of p-S6 and p-AKT in NCI-H23
apoptosis based on cleaved PARP levels ([5]; ruxolitinib or momelotinib 1 and 5 μM): minimal cleaved PARP

Cc1nc(NC(=O)N2CCC[C@H]2C(N)=O)sc1-c1ccnc(C(C)(C)C(F)(F)F)c1 [BYL719, Alpelisib]
apoptosis based on cleaved PARP levels (SW1573 cells): does not induce robust apoptosis

C#Cc1cccc(Nc2ncnc3cc(OCCOC)c(OCCOC)cc23)c1 [erlotinib, reference compound]
G1 arrest and induction of apoptosis (H358 cells (KRAS G12C); H358 cells (FIG. 9, left panel)): G1 arrest with low to modest induction of apoptosis
apoptosis based on c-caspase 3 levels (H358 cells (KRAS G12C); H358 cells (FIG. 11)): does not induce robust apoptosis
apoptosis based on cleaved PARP levels (H358 cells (KRAS G12C); 24 hours, G12C inhibitors 10 μM, GDC0941 2 μM (FIG. 2)): does not induce robust apoptosis
apoptosis based on cleaved PARP levels (H358 cells (KRAS G12C); I-74 15 μM, PD0325901 100 nM, GDC0941 1 μM): does not induce robust apoptosis
caspase activity [6]: did not induce significant caspase activity
cell cycle arrest and induction of apoptosis (flow cytometry) (H358 cells): G1 arrest with low to modest induction of apoptosis

— patent US10111874B2, “Combination therapies for treatment of cancer” (Araxes Pharma LLC, priority 2014, dated 2018)
